# Results reported in patent US20230270723A1, “GLUCOKINASE ACTIVATOR FOR TREATING DIABETES WITH HEPATIC IMPAIRMENT” (HUA Medicine (Shanghai) Ltd., priority 2020, published 2023).
# Where two headings read alike, the source gives them in different places.
# What was measured:
# [1] = Phase I single oral dose pharmacokinetic study of dorzagliatin in subjects with mild or moderate hepatic impairment and healthy subjects (plasma, LC-MS/MS, non-compartmental); type: in vivo, human; conditions: for AUC(0-inf) / AUC(0-t) / Cmax / half-life / Vd/F / Tmax: both sexes, human, plasma, po, 25 mg; for Vd/F: read-out: Vz/F; for Tmax: median
# Experimental: This phase I study is to access the pharmacokinetics and safety of a single dose of dorzagliatin in subjects with mild or moderate hepatic impairment, and heathy subjects. […] The eligible subjects of Groups A and B are matched closely with the healthy subjects of Group C as to their sexes, ages (±5 yrs), and BMIs (±15%).
# on Day −2 or −1, eligible subjects are admitted to a clinical research center (CRC). […], the subjects have no additional food after a standard dinner for at least 10 h. In the morning of Day 1, the subjects each receive dorzagliatin (25 mg) orally with empty stomach. One hour later, the subjects have a standardized breakfast. Blood samples are collected at the following time points: within 60 min pre-dose; and at 0.25, 0.5, 1, 1.5, 2, 2.5, 3, 4, 6, 8, 12, 24, 36, 48, and 72 h post-dose. The samples are analyzed using LC-MS/MS. The plasma concentration-time data for dorzagliatin are analyzed using a non-compartmental model to obtain PK parameters, including Cmax, AUClast, and AUCinf. An ANOVA analysis is performed on the data between Group C and Groups A and B.
# Study design: This study was designed to evaluate the PK and safety of a single oral dose of dorzagliatin 25 mg in subjects with hepatic impairment compared with matched healthy subjects using an open label, single-center, parallel study design. The study population (as shown in Table 1) consisted of subjects with mild (group A) and moderate (group B) hepatic impairment and healthy subjects (group C) matched for sex, mean age, and mean BMI. The number of subjects who completed the study in each group was not less than 8, both male and female, and no less than 3 subjects of a single sex in each group.
# (§1) Eligible subjects were admitted to the Phase 1 study ward on either Day −2 or Day −1 to complete the baseline examination, and re-confirmed the inclusion/exclusion criteria by the investigator and fed a standardized meal after admission. Subjects were fasted at least 10 hours overnight while water was not deprived after the standardized dinner on Day −1, and received a single dose of dorzagliatin 25 mg (25 mg/tablet, 1 tablet) with 240 mL of warm water on the morning of Day 1. Subjects should start the standardized breakfast about 1 hour after administration and complete the meal within 30 minutes. Blood samples for PK and plasma protein binding (PPB) analyses were collected at specified time points within 1 hour pre-dose through 72 hours post-dose. The corresponding safety indicators at preset time points were detected for safety assessment.
# (§2) Pharmacokinetic Evaluation • PK blood sampling time: Within 1 hour pre-dose and 0.25, 0.5, 1, 1.5, 2, 2.5, 3, 4, 6, 8, 12, 24, 36, 48 and 72 hours post-dose of dorzagliatin on Day 1. • PPB blood sampling time: Within 1 hour pre-dose and 1 hour post-dose of dorzagliatin. • Bioanalytical method: dorzagliatin in plasma was analyzed using a validated method of liquid chromatography-tandem mass spectrometry (LC-MS/MS). • PK parameters. Primary PK endpoint: Cmax, AUClast, AUCinf; Secondary PK endpoint (if applicable): Cmax,u, AUClast,u, AUCinf,u, Tmax, T1/2, CL/F, Vz/F, fu.
# [2] = Plasma protein binding (PPB) analysis, free drug percentage (fu); type: in vitro ADME; conditions: human, oral, 25 mg
# Experimental: as §1, §2
# [3] = Safety evaluation (adverse events) after single oral dose of dorzagliatin 25 mg; type: in vivo, human
# Experimental: Safety Evaluation • Physical examination: Evaluated at screening, baseline, Day 2, Day 3, discharge examination on Day 4. • Vital signs: Evaluated at screening, baseline, 24 and 48 hours post-dose, discharge examination on Day 4. • 12-lead ECG: Evaluated at screening, baseline, 24 hours and 48 hours post-dose, discharge examination on Day 4. Test once at each time point. • Hematology, blood biochemistry and urinalysis: Evaluated at screening, baseline, 24 hours, 48 hours and 72 hours post-dose. • Adverse events (AEs): All the subjects are observed for any AEs occurring from the signing of the ICF to the end of study. The clinical manifestations, severity, occurrence time, end time (if applicable), treatment measure, outcome and other information of each AE are recorded, and the correlation between an AE and the study drugs is judged.
# [4] = single oral dose 25 mg, healthy group, arithmetic mean
# [5] = single oral dose 25 mg, mild hepatic impairment group, arithmetic mean
# [6] = single oral dose 25 mg, moderate hepatic impairment group, arithmetic mean
# [7] = moderate hepatic impairment group
compound,measurement,setting,value
"CC(C)C[C@@H](C(=O)Nc1ccn(C[C@@H](O)CO)n1)N1CC(Oc2ccccc2Cl)=CC1=O [dorzagliatin, (S)-2-(4-(2-chlorophenoxy)-2-oxo-2,5-dihydro-1H-pyrrol-1-yl)-N-(1-((R)-2,3-dihydroxypropyl)-1H-pyrazol-3-yl)-4-methylpentanamide]",AUC(0-inf),"[1]; free drug, single oral dose 25 mg, healthy group, arithmetic mean, read-out: AUCinf,u",0.123 µg·h/mL
same,AUC(0-t),"[1]; free drug, single oral dose 25 mg, healthy group, arithmetic mean, read-out: AUClast,u",0.122 µg·h/mL
same,AUC(0-inf),"[1]; free drug, single oral dose 25 mg, healthy group, read-out: AUCinf,u, geometric least squares mean",0.119 µg·h/mL
same,AUC(0-t),"[1]; free drug, single oral dose 25 mg, healthy group, read-out: AUClast,u, geometric least squares mean",0.118 µg·h/mL
same,AUC(0-inf),"[1]; free drug, single oral dose 25 mg, mild hepatic impairment group (N=7), arithmetic mean, read-out: AUCinf,u",0.17 µg·h/mL
same,AUC(0-t),"[1]; free drug, single oral dose 25 mg, mild hepatic impairment group (N=7), arithmetic mean, read-out: AUClast,u",0.169 µg·h/mL
same,AUC(0-inf),"[1]; free drug, single oral dose 25 mg, moderate hepatic impairment group, arithmetic mean, read-out: AUCinf,u",0.287 µg·h/mL
same,AUC(0-t),"[1]; free drug, single oral dose 25 mg, moderate hepatic impairment group, arithmetic mean, read-out: AUClast,u",0.284 µg·h/mL
same,AUC(0-inf),"[1]; free drug, single oral dose 25 mg, moderate hepatic impairment group, read-out: AUCinf,u, geometric least squares mean",0.282 µg·h/mL
same,AUC(0-t),"[1]; free drug, single oral dose 25 mg, moderate hepatic impairment group, read-out: AUClast,u, geometric least squares mean",0.28 µg·h/mL
same,Cmax,"[1]; single oral dose 25 mg, fasted, healthy group, arithmetic mean, read-out: Cmax",0.325 µg/mL
same,Cmax,"[1]; single oral dose 25 mg, fasted, mild hepatic impairment group (Child-Pugh 5-6), arithmetic mean, read-out: Cmax",0.382 µg/mL
same,Cmax,"[1]; single oral dose 25 mg, fasted, moderate hepatic impairment group (Child-Pugh 7-9), arithmetic mean, read-out: Cmax",0.37 µg/mL
same,half-life,[1]; [4],6.22 h
same,AUC(0-inf),"[1]; single oral dose 25 mg, healthy group, arithmetic mean, read-out: AUCinf",1.91 µg·h/mL
same,AUC(0-t),"[1]; single oral dose 25 mg, healthy group, arithmetic mean, read-out: AUClast",1.89 µg·h/mL
same,Vd/F,[1]; [4],122 L
same,Tmax,"[1]; single oral dose 25 mg, healthy group",1.75 h
same,AUC(0-inf),"[1]; single oral dose 25 mg, healthy group, read-out: AUCinf, geometric least squares mean",1.87 µg·h/mL
same,AUC(0-t),"[1]; single oral dose 25 mg, healthy group, read-out: AUClast, geometric least squares mean",1.84 µg·h/mL
same,Cmax,"[1]; single oral dose 25 mg, healthy group, read-out: Cmax, geometric least squares mean",0.307 µg/mL
same,half-life,[1]; [5],6.25 h
same,AUC(0-inf),"[1]; single oral dose 25 mg, mild hepatic impairment group, arithmetic mean, read-out: AUCinf",2.26 µg·h/mL
same,AUC(0-t),"[1]; single oral dose 25 mg, mild hepatic impairment group, arithmetic mean, read-out: AUClast",2.24 µg·h/mL
same,Vd/F,[1]; [5],106 L
same,Tmax,"[1]; single oral dose 25 mg, mild hepatic impairment group",1.5 h
same,AUC(0-inf),"[1]; single oral dose 25 mg, mild hepatic impairment group, read-out: AUCinf, geometric least squares mean",2.19 µg·h/mL
same,AUC(0-t),"[1]; single oral dose 25 mg, mild hepatic impairment group, read-out: AUClast, geometric least squares mean",2.17 µg·h/mL
same,Cmax,"[1]; single oral dose 25 mg, mild hepatic impairment group, read-out: Cmax, geometric least squares mean",0.37 µg/mL
same,half-life,[1]; [6],8.04 h
same,AUC(0-inf),"[1]; single oral dose 25 mg, moderate hepatic impairment group, arithmetic mean, read-out: AUCinf",3.45 µg·h/mL
same,AUC(0-t),"[1]; single oral dose 25 mg, moderate hepatic impairment group, arithmetic mean, read-out: AUClast",3.41 µg·h/mL
same,Vd/F,[1]; [6],85.2 L
same,AUC(0-t),"[1]; single oral dose 25 mg, moderate hepatic impairment group, mean, read-out: AUClast",3.41 µg·h/mL
same,Tmax,"[1]; single oral dose 25 mg, moderate hepatic impairment group",1.5 h
same,AUC(0-inf),"[1]; single oral dose 25 mg, moderate hepatic impairment group, read-out: AUCinf, geometric least squares mean",3.41 µg·h/mL
same,AUC(0-t),"[1]; single oral dose 25 mg, moderate hepatic impairment group, read-out: AUClast, geometric least squares mean",3.37 µg·h/mL
same,Cmax,"[1]; single oral dose 25 mg, moderate hepatic impairment group, read-out: Cmax, geometric least squares mean",0.362 µg/mL
same,"Cmax,u, geometric least squares mean","[1]; free drug, single oral dose 25 mg, healthy group",0.0197 µg/mL
same,"Cmax,u","[1]; free drug, single oral dose 25 mg, healthy group, arithmetic mean",0.021 µg/mL
same,"Cmax,u","[1]; free drug, single oral dose 25 mg, mild hepatic impairment group (N=7), arithmetic mean",0.0288 µg/mL
same,"Cmax,u, geometric least squares mean","[1]; free drug, single oral dose 25 mg, moderate hepatic impairment group",0.03 µg/mL
same,"Cmax,u","[1]; free drug, single oral dose 25 mg, moderate hepatic impairment group, arithmetic mean",0.0307 µg/mL
same,increase of geometric mean of AUCinf compared with healthy subjects,[1]; mild hepatic impairment group,~17%
same,increase of geometric mean of AUClast compared with healthy subjects,[1]; mild hepatic impairment group,approximately 18%
same,increase of geometric mean of Cmax compared with healthy subjects,[1]; mild hepatic impairment group,approximately 20%
same,effect of mild hepatic impairment on clearance and exposure level,[1]; mild hepatic impairment vs healthy subjects,no significant effect
same,increase of geometric mean of AUCinf compared with healthy subjects,[1]; [7],~83%
same,increase of geometric mean of AUClast compared with healthy subjects,[1]; [7],~83%
same,increase of geometric mean of Cmax compared with healthy subjects,[1]; [7],approximately 18%
same,increase of geometric mean of free AUCinf compared with the healthy group,[1]; [7],~137%
same,increase of geometric mean of free AUClast compared with the healthy group,[1]; [7],~137%
same,clearance and exposure level in moderate hepatic impairment,[1]; moderate hepatic impairment vs healthy subjects,the drug clearance was decreased and the exposure level was increased
same,increase of AUC of free drug compared with healthy subjects,"[1]; moderate hepatic impairment, conclusion, AUC not further specified",~137%
same,absorption after oral administration,[1]; single oral dose 25 mg,rapidly absorbed
same,CL/F,[1]; [4],13.7 L/h
same,CL/F,[1]; [5],11.8 L/h
same,CL/F,[1]; [6],7.43 L/h
same,fraction unbound,"[2]; free drug percentage in plasma, healthy group, arithmetic mean, read-out: fu",0.0646
same,fraction unbound,"[2]; free drug percentage in plasma, mild hepatic impairment group (N=7), arithmetic mean, read-out: fu",0.0719
same,fraction unbound,"[2]; free drug percentage in plasma, moderate hepatic impairment group, arithmetic mean, read-out: fu",0.0832
same,fraction unbound,"[2]; healthy group, read-out: free drug percentage (fu), geometric mean",0.0639
same,fraction unbound,"[2]; mild hepatic impairment group, read-out: free drug percentage (fu), geometric mean",0.0712
same,fraction unbound,"[2]; moderate hepatic impairment group, read-out: free drug percentage (fu), geometric mean",0.0829
same,number of AEs,[3]; all subjects,20
same,number of TEAEs,[3]; all subjects,18
same,number of TEAEs considered possibly related to the study drug,[3]; all subjects,10
same,subjects with TEAEs considered possibly related to the study drug,[3]; all subjects,25.0%
same,"SAEs, death, or significant TEAEs","[3]; all subjects, during the study","no SAEs, death, or significant TEAEs"
same,subjects who experienced TEAEs,"[3]; all subjects, mild in most cases",33.3%
same,subjects who experienced AEs,"[3]; all subjects, single oral dose 25 mg",33.3%
same,subjects who experienced AEs,[3]; healthy group,No subjects
same,number of AEs,[3]; mild hepatic impairment group,13
same,number of TEAEs considered possibly related to the study drug,[3]; mild hepatic impairment group,8
same,subjects who experienced AEs,[3]; mild hepatic impairment group,62.5%
same,subjects with TEAEs considered possibly related to the study drug,[3]; mild hepatic impairment group,50.0%
same,number of AEs,[3]; [7],7
same,number of TEAEs considered possibly related to the study drug,[3]; [7],2
same,subjects who experienced AEs,[3]; [7],37.5%
same,subjects with TEAEs considered possibly related to the study drug,[3]; [7],25.0%
same,safety and tolerability,"[3]; single oral dose, subjects with mild and moderate hepatic impairment",safe and well tolerated
